The subject of this assay is SOX2. Description: Screen of a library of FDA-approved drugs for SOX2 antibody staining in A375 cells treated with PLX4720 and AZD6244. Conditions: for cor. loess: normalized and geometry-corrected (loess) signal; for norm: signal after plate normalization.
Setting [1] is: A375 cells, 5 uM test drug with 1 uM PLX4720 and 0.5 uM AZD6244, 24 h.
The mark [2] stands for this setting: A375 cells, 5 uM test drug with 1 uM PLX4720 and 0.5 uM AZD6244, 24 h, raw signal (ratio of FL2 SOX2 antibody and FL3 nuclear staining), screen run in duplicate.
[3] abbreviates: Z-test against negative controls (DMSO), single dose 5 uM.

The values below come from patent publication US20200325543A1, “DIAGNOSTIC METHOD” (TOLREMO THERAPEUTICS AG, priority 2017, published 2020).

Structures can show the parent of a compound that is named as a salt. Where two headings read alike, the source gives them in different places.

Under setting [1], `CCN(CC)Cc1cc(Nc2ccnc3cc(Cl)ccc23)ccc1O` [AMODIAQUINE DIHYDROCHLORIDE] returned a cor. loess of 0.9308 and a norm of 1.053. The raw under setting [2] is 0.9611. Under setting [3], this molecule displayed a z of 7.671.
Taken in the same sequence, the figures for `O=C(CCCCCCC(=O)Nc1ccccc1)NO` [VORINOSTAT] were 0.9868, 0.984, 0.9634 and 13.43.
As for `CC[C@@H](C(=O)[C@@H](C)[C@@H](O)[C@H](C)[C@@H]1O[C@@H]([C@@H](CC)C(=O)O)CC[C@@H]1C)[C@H]1O[C@]2(C=C[C@@H](O)[C@]3(CC[C@@](C)([C@H]4CC[C@](O)(CC)[C@H](C)O4)O3)O2)[C@H](C)C[C@@H]1C` [SALINOMYCIN, SODIUM], under setting [1], the cor. loess is listed as 0.802 and the norm is recorded as 0.8129. Besides, the raw under setting [2] amounted to 0.9671. The same molecule displayed a z under setting [3] of 8.891.
With `C[C@]12CCC(=O)C(O)=C1CC[C@@H]1[C@@H]2CC[C@]2(C)C(=O)CC[C@@H]12` [FORMESTANE], under setting [1], the cor. loess worked out at 0.4179 and the norm was found to be 0.3818. Also, the raw under setting [2] is 0.98. Under setting [3], this molecule registered a z of 4.633.
Taken in the same sequence, the figures for `C[C@H]1[C@H](OC(=O)CCC(=O)O)O[C@@H]2O[C@@]3(C)CC[C@H]4[C@H](C)CC[C@@H]1[C@@]24OO3` [ARTESUNATE] were 0.3246, 0.3139, 0.9835 and 3.471.
Taken in the same sequence, the figures for `CCCOc1ccc2nc(NC(=O)OC)[nH]c2c1` [OXIBENDAZOLE] were 0.4781, 0.5578, 0.9763 and 6.505.
In the same order, the values of `COC(=O)c1ccc2c(c1)NC(=O)/C2=C(\Nc1ccc(N(C)C(=O)CN2CCN(C)CC2)cc1)c1ccccc1` [Nintedanib (BIBF 1120), Nintedanib] are 0.5485, 0.6171, 0.9744 and 4.28.
Under setting [1], `CC1(C)O[C@@H]2C[C@H]3[C@@H]4CCC5=CC(=O)CC[C@]5(C)[C@@]4(F)[C@@H](O)C[C@]3(C)[C@]2(C(=O)CCl)O1` [HALCINONIDE] registered a cor. loess of 0.2632 and a norm of 0.2586. Also, under setting [2], the raw was found to be 0.9853. The molecule also came in with a z under setting [3] of 3.581.
In the same order, the values of MONENSIN SODIUM are 0.5359, 0.5968, 0.9761 and 4.599.
With `CN(C)Cc1ccc(S(=O)(=O)n2ccc(/C=C/C(=O)NO)c2)cc1` [Resminostat], under setting [1], the cor. loess is given as 0.8 and the norm stood at 0.8939. For the same molecule, the raw under setting [2] is given as 0.9656. Under setting [3], the z was 6.242.
In the same order, the values of `Cc1cnc(Nc2ccc(OCCN3CCCC3)cc2)nc1Nc1cccc(S(=O)(=O)NC(C)(C)C)c1` [TG101348 (SAR302503)] are 1.471, 1.142, 0.9608 and 5.665.
Taken in the same sequence, the figures for `COC(=O)Nc1nc2ccc(Sc3ccccc3)cc2[nH]1` [FENBENDAZOLE] were 0.4709, 0.4377, 0.9808 and 4.041.
In the same order, the values of `C[C@@H]1C[C@@H]([C@H](O)CC2CC(=O)NC(=O)C2)C(=O)[C@@H](C)C1` [CYCLOHEXIMIDE] are 0.6971, 0.6756, 0.9738 and 5.982.
For `CCOC(=O)O[C@]1(C(=O)COC(=O)CC)CC[C@H]2[C@@H]3CCC4=CC(=O)C=C[C@]4(C)[C@H]3[C@@H](O)C[C@@]21C` [PREDNICARBATE], under setting [1], the cor. loess is given as 0.3992 and the norm is 0.4403. The raw under setting [2] was 0.9782. Further, under setting [3], the z stood at 4.425.
In the case of `C1CCC(C(CC2CCCCN2)C2CCCCC2)CC1` (stereo not shown) [PERHEXILINE MALEATE], under setting [1], the cor. loess was 0.3464 and the norm amounted to 0.4809. The raw under setting [2] is 0.9786. Moreover, the z under setting [3] is on record as 4.713.
Taken in the same sequence, the figures for `CC(C)(C)CC(C)(C)c1ccc(OCCOCC[N+](C)(C)Cc2ccccc2)cc1` [BENZETHONIUM CHLORIDE] were 0.9288, 0.9712, 0.9635 and 7.654.
With `O=c1[nH]c(=O)n([C@H]2C[C@H](O)[C@@H](CO)O2)cc1F` [FLOXURIDINE], under setting [1], the cor. loess is given as 0.3344 and the norm came out at 0.4513. The raw under setting [2] turned out to be 0.9795. Under setting [3], the z came out at 4.549.
Taken in the same sequence, the figures for `CO[C@H]1/C=C/O[C@@]2(C)Oc3c(C)c(O)c4c(O)c(c(/C=N/N5CCN(C)CC5)c(O)c4c3C2=O)NC(=O)/C(C)=C\C=C\[C@H](C)[C@H](O)[C@@H](C)[C@@H](O)[C@@H](C)[C@H](OC(C)=O)[C@@H]1C` [RIFAMPIN] were 0.4025, 0.4925, 0.9792 and 3.454.
Taken in the same sequence, the figures for `Cc1cc(C#N)cc(C)c1Oc1nc(Nc2ccc(C#N)cc2)nc(N)c1Br` [Etravirine (TMC125), Etravirine] were 0.646, 0.6589, 0.9731 and 6.907.
HYDROCORTISONE HEMISUCCINATE displayed a z of 3.809. Under setting [1], this molecule showed a cor. loess of 0.4622 and a norm of 0.507.
Take `COC(=O)[C@]12CCC(C)(C)C[C@H]1[C@H]1C(=O)C=C3[C@@]4(C)C=C(C#N)C(=O)C(C)(C)[C@@H]4CC[C@@]3(C)[C@]1(C)CC2` [Bardoxolone Methyl]: under setting [1], the cor. loess was 1.25 and the norm was 1.346. For the same molecule, under setting [2], the raw turned out to be 0.9513. Under setting [3], this molecule registered a z of 9.753.
In the same order, the values of `Nc1ncn([C@@H]2O[C@H](CO)[C@@H](O)[C@H]2O)c(=O)n1` [AZACITIDINE] are 0.9945, 0.9714, 0.9651 and 8.534.
In the same order, the values of `Nc1cc(F)ccc1NC(=O)c1ccc(CNC(=O)/C=C/c2cccnc2)cc1` [Chidamide] are 1.067, 1.02, 0.9618 and 7.547.
Taken in the same sequence, the figures for `CC(C)Oc1ccc2c(=O)c(-c3ccccc3)coc2c1` [IPRIFLAVONE] were 0.3885, 0.3563, 0.9807 and 4.307.
Under setting [1], `Cc1oncc1C(=O)Nc1ccc(C(F)(F)F)cc1` [LEFLUNOMIDE] displayed a cor. loess of 0.3194 and a norm of 0.3831. Besides, the raw under setting [2] came to 0.9816. This molecule also showed a z under setting [3] of 4.346.
`CCCSc1ccc2nc(NC(=O)OC)[nH]c2c1` [ALBENDAZOLE] yielded a raw of 0.9811. Further, under setting [1], the cor. loess is reported as 0.3977 and the norm is listed as 0.3992. In addition, the z under setting [3] amounted to 5.411.
